{"source": "patent US20100119483A1", "about": "“PEPTIDE VIRAL ENTRY INHIBITORS” (Schering Corporation, priority 2004, published 2010)", "test_system": "HCV pseudoparticles", "assay": "HCV pseudoparticle (HCVpp) entry assay in Huh7 hepatoma cells, luciferase readout", "assay_type": "cell-based, hepatitis C virus", "conditions": "for % of control at ~30 uM: percentage of hepatitis C virus cellular entry at 30 μM peptide vs uninhibited control; for HCVpp % inh: truncated peptides tested at 50 uM in 1% DMSO", "how_it_was_run": "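Huh7 cells were pre-treated with peptide for 1 h at 37 °C before exposure to HCV E1/E2-pseudotyped HIV luciferase particles made in 293T cells, followed by 72 h culture and luciferase readout. Peptides were tested at 10 points, 3-fold, from 100 ug/ml; particles lacking envelope served as non-specific entry control.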", "key": {"[1]": {"conditions": "0.00003 uM of peptide, two values per peptide and row"}, "[2]": {"conditions": "0.0001 uM of peptide, two values per peptide"}, "[3]": {"conditions": "0.0003 uM of peptide, two values per peptide"}, "[4]": {"conditions": "0.001 uM of peptide, two values per peptide"}, "[5]": {"conditions": "0.003 uM of peptide, two values per peptide"}, "[6]": {"conditions": "0.01 uM of peptide, two values per peptide"}, "[7]": {"conditions": "0.03 uM of peptide, two values per peptide"}, "[8]": {"conditions": "0.1 uM of peptide, two values per peptide"}, "[9]": {"conditions": "0.3 uM of peptide, two values per peptide"}, "[10]": {"conditions": "30 uM of peptide, two values per peptide"}, "[11]": {"conditions": "0.1 nM of peptide (printed for three rows), two values per peptide and row"}, "[12]": {"conditions": "0.3 nM of peptide, two values per peptide"}, "[13]": {"conditions": "1 nM of peptide, two values per peptide"}, "[14]": {"conditions": "3 nM of peptide, two values per peptide"}, "[15]": {"conditions": "10 nM of peptide, two values per peptide"}, "[16]": {"conditions": "100 nM of peptide, two values per peptide"}, "[17]": {"conditions": "300 nM of peptide, two values per peptide"}, "[18]": {"conditions": "30 nM of peptide, two values per peptide"}}, "note": "Where “and” joins values, the source holds several entries; their conditions need not be identical. Equal values may be shown once.", "data": [{"substance": "A-I-K-W-G-Y-V-L-L-L-F-L-L (AIKWGYVLLLFLL; HCV peptide) [SEQ ID NO: 84, Gly-scan]", "values": [{"measurement": "% control (HCVpp entry), glycine scanning", "setting": "[1]", "value": "118 % control and 84 % control and 87 % control and 110 % control"}, {"measurement": "% control (HCVpp entry), glycine scanning", "setting": "[2]", "value": "62 % control and 75 % control"}, {"measurement": "% control (HCVpp entry), glycine scanning", "setting": "[3]", "value": "91 % control and 81 % control"}, {"measurement": "% control (HCVpp entry), glycine scanning", "setting": "[4]", "value": "74 % control and 73 % control"}, {"measurement": "% control (HCVpp entry), glycine scanning", "setting": "[5]", "value": 70, "unit": "% control"}, {"measurement": "% control (HCVpp entry), glycine scanning", "setting": "[6]", "value": "72 % control and 53 % control"}, {"measurement": "% control (HCVpp entry), glycine scanning", "setting": "[7]", "value": "62 % control and 52 % control"}, {"measurement": "% control (HCVpp entry), glycine scanning", "setting": "[8]", "value": "41 % control and 39 % control"}, {"measurement": "% control (HCVpp entry), glycine scanning", "setting": "[9]", "value": "37 % control and 57 % control"}, {"measurement": "% control (HCVpp entry), glycine scanning", "setting": "[10]", "value": "22 % control and 38 % control"}, {"measurement": "% of control at ~30 uM", "value": 19, "unit": "%"}]}, {"substance": "A-I-K-W-P-Y-V-L-L-L-F-L-L (AIKWPYVLLLFLL; HCV peptide) [SEQ ID NO: 119]", "values": [{"measurement": "% control (HCVpp entry), proline scanning", "setting": "[11]", "value": "93 % control and 76 % control and 87 % control and 85 % control and 102 % control and 126 % control"}, {"measurement": "% control (HCVpp entry), proline scanning", "setting": "[12]", "value": "78 % control and 77 % control"}, {"measurement": "% control (HCVpp entry), proline scanning", "setting": "[13]", "value": "72 % control and 68 % control"}, {"measurement": "% control (HCVpp entry), proline scanning", "setting": "[14]", "value": "94 % control and 62 % control"}, {"measurement": "% control (HCVpp entry), proline scanning", "setting": "[15]", "value": "54 % control and 48 % control"}, {"measurement": "% control (HCVpp entry), proline scanning", "setting": "[16]", "value": "40 % control and 46 % control"}, {"measurement": "% control (HCVpp entry), proline scanning", "setting": "[17]", "value": "40 % control and 47 % control"}, {"measurement": "% control (HCVpp entry), proline scanning", "setting": "30000 nM of peptide, two values per peptide", "value": "28 % control and 17 % control"}]}, {"substance": "A-I-P-W-E-Y-V-L-L-L-F-L-L (AIPWEYVLLLFLL; HCV peptide) [SEQ ID NO: 117]", "values": [{"measurement": "% control (HCVpp entry), proline scanning", "setting": "[12]", "value": "66 % control and 117 % control"}, {"measurement": "% control (HCVpp entry), proline scanning", "setting": "[13]", "value": "68 % control and 87 % control"}, {"measurement": "% control (HCVpp entry), proline scanning", "setting": "[14]", "value": "89 % control and 66 % control"}, {"measurement": "% control (HCVpp entry), proline scanning", "setting": "[15]", "value": 75, "unit": "% control"}, {"measurement": "% control (HCVpp entry), proline scanning", "setting": "[18]", "value": "58 % control and 71 % control"}, {"measurement": "% control (HCVpp entry), proline scanning", "setting": "[16]", "value": "38 % control and 54 % control"}, {"measurement": "% control (HCVpp entry), proline scanning", "setting": "[17]", "value": "48 % control and 41 % control"}, {"measurement": "% control (HCVpp entry), proline scanning", "setting": "10000 nM of peptide, two values per peptide", "value": "54 % control and 31 % control"}]}, {"substance": "A-K-K-W-E-Y-V-L-L-L-E-L-L [SEQ ID NO: 102]", "values": [{"measurement": "% control (HCVpp entry), lysine scanning", "setting": "[11]", "value": "104 % control and 102 % control and 89 % control and 108 % control and 98 % control and 106 % control"}, {"measurement": "% control (HCVpp entry), lysine scanning", "setting": "[12]", "value": "141 % control and 107 % control"}, {"measurement": "% control (HCVpp entry), lysine scanning", "setting": "[13]", "value": "96 % control and 83 % control"}, {"measurement": "% control (HCVpp entry), lysine scanning", "setting": "[14]", "value": "70 % control and 66 % control"}, {"measurement": "% control (HCVpp entry), lysine scanning", "setting": "[15]", "value": "67 % control and 62 % control"}, {"measurement": "% control (HCVpp entry), lysine scanning", "setting": "[18]", "value": "33 % control and 41 % control"}, {"measurement": "% control (HCVpp entry), lysine scanning", "setting": "[16]", "value": "16 % control and 25 % control"}, {"measurement": "% control (HCVpp entry), lysine scanning", "setting": "[17]", "value": "29 % control and 23 % control"}, {"measurement": "% of control at ~30 uM", "value": 5, "unit": "%"}]}, {"substance": "F-A-I-K-W-E-Y-V-L-L-L-F-L-L [SEQ ID NO: 105]", "values": [{"measurement": "HCVpp % inh", "value": 95, "unit": "%"}]}, {"substance": "G-I-K-W-E-Y-V-L-L-L-F-L-L [SEQ ID NO: 82]", "values": [{"measurement": "% control (HCVpp entry), glycine scanning", "setting": "[1]", "value": "74 % control and 88 % control and 118 % control and 120 % control"}, {"measurement": "% control (HCVpp entry), glycine scanning", "setting": "[2]", "value": "62 % control and 61 % control"}, {"measurement": "% control (HCVpp entry), glycine scanning", "setting": "[3]", "value": "68 % control and 71 % control"}, {"measurement": "% control (HCVpp entry), glycine scanning", "setting": "[4]", "value": "90 % control and 66 % control"}, {"measurement": "% control (HCVpp entry), glycine scanning", "setting": "[5]", "value": "71 % control and 80 % control"}, {"measurement": "% control (HCVpp entry), glycine scanning", "setting": "[6]", "value": "53 % control and 43 % control"}, {"measurement": "% control (HCVpp entry), glycine scanning", "setting": "[7]", "value": "46 % control and 41 % control"}, {"measurement": "% control (HCVpp entry), glycine scanning", "setting": "[8]", "value": "33 % control and 27 % control"}, {"measurement": "% control (HCVpp entry), glycine scanning", "setting": "[9]", "value": "33 % control and 25 % control"}, {"measurement": "% control (HCVpp entry), glycine scanning", "setting": "10 uM of peptide, two values per peptide", "value": "33 % control and 29 % control"}, {"measurement": "% control (HCVpp entry), glycine scanning", "setting": "[10]", "value": "18 % control and 29 % control"}, {"measurement": "% of control at ~30 uM", "value": 22, "unit": "%"}]}, {"substance": "I-K-W-E-Y-V-L-L-L-F-L-L [SEQ ID NO: 107]", "values": [{"measurement": "HCVpp % inh", "value": 88, "unit": "%"}]}]}
